Source: US20100098788A1, “Extracts of Curcuma and Methods of Use Thereof” (priority 2008, published 2010)
pIC50: −log10 of the molar value. Where two headings read alike, the source gives them in different places.

Columns and labels:
[1] = molecular target: T1, Aβ1-42 aggregation (Homo sapiens, UniProt P05067); test: Interaction matrices of Extract 1 with extracts and curcuminoids in the Aβ1-42 aggregation assay; format: biochemical
T1 construct: carried out with the synthetic Aβ1-42 peptide incubated with the extracts

[2] = test system: phosphorylated tau (Ser199/220 and AT8 antibodies) in Tg2576 mice; test: Western blot of phosphorylated tau in brain homogenates after oral treatment; format: in vivo; conditions: soluble fraction, oral 0.07% in chow, 6 months
Description: The Tg2576 mice, which are engineered to develop AD within ca. 6 months after birth, were purchased from Taconic (Germantown, N.Y.). For oral administration of extracts, a total of 60 (30 female/30 male) Tg2576 mice with a B6/SJL background were employed. Beginning at 8 months of age, Tg2576 treatment mice were administered optimized turmeric Extract 1 and THC in NIH31 chow (0.07% in NIH31 chow, 167 mg/kg/day) or NIH31 chow alone (Control) for 6 months [n=20 (10 female/10 male)]. All mice were sacrificed at 14 months of age for analyses of Aβ levels and Aβ load in the brain according to previously described methods (J. Tan, T. Town, F. Crawford, T. Mori, A. DelleDonne, R. Crescentini, D. Obregon, R. A. Flavell and M. J. Mullan, 2002. Role of CD40 ligand in amyloidosis in transgenic Alzheimer's mice, Nat. Neurosci. 5:1288-1293). […]
Brain homogenates were obtained as previously described above. […] Densitometric analysis was done as previously described using a FluorS Multiimager with Quantity One™ software (BioRad, Hercules, Calif.) (K. Rezai-Zadeh, D. Shytle, N. Sun, T. Mori, H. Hou, D. Jeanniton, J. Ehrhart, K. Townsend, J. Zeng, D. Morgan, J. Hardy, T. Town and J. Tan, 2005. Green tea epigallocatechin-3-gallate (EGCG) modulates amyloid precursor protein cleavage and reduces cerebral amyloidosis in Alzheimer transgenic mice, J. Neurosci. 25:8807-8814).

[3] = test system: IL-4 and IL-2 in splenocytes of Tg2576 mice; test: Cytokine ELISA of anti-CD3 stimulated primary splenocyte cultures from treated mice; format: in vivo; conditions: splenocytes stimulated 24 h with anti-CD3 antibody
Description: FIG. 9 depicts the IL-4 to IL-2 cytokine profile of Extract 1- and THC-treated Tg2576 mice. Following sacrifice, primary cultures of splenocytes were established from the mice and stimulated for 24 hours with anti-CD3 antibody.
The Tg2576 mice, which are engineered to develop AD within ca. 6 months after birth, were purchased from Taconic (Germantown, N.Y.). For oral administration of extracts, a total of 60 (30 female/30 male) Tg2576 mice with a B6/SJL background were employed. […]
As described in the previous studies (J. Tan, T. Town, D. Paris, T. Mori, Z. Suo, F. Crawford, M. P. Mattson, R. A. Flavell and M. Mullan, 1999. Microglial activation resulting from CD40-CD40L interaction after beta-amyloid stimulation, Science. 286:2352-2355; J. Tan, T. Town, M. Saxe, D. Paris, Y. Wu and M. Mullan, 1999. Ligation of microglial CD40 results in p44/42 mitogen-activated protein kinase-dependent TNF-alpha production that is opposed by TGF-beta 1 and IL-10, J. Immunol. 163:6614-6621) cell cultured media were collected for measurement of cytokines by commercial cytokine ELISA kits. […] Cytokines were quantified using commercially available ELISAs (BioSource International, Inc., Camarillo, Calif.) that allow for detection of IL-2 and IL-4. […]

[4] = molecular target: T2, Aβ1-42 peptide (Homo sapiens, UniProt P05067); test: Amyloid aggregation assay (thioflavin T fluorescence); format: biochemical; conditions: 0 to 30 μg mL^−1, 120 h, 37° C.
T2 construct: carried out with the synthetic Aβ1-42 peptide incubated with the extracts

[5] = test system: Aβ1-40, 42 peptides secreted from SweAPP N2a cells; test: Aβ secretion ELISA in conditioned media of SweAPP N2a cells; format: cell-based; conditions: 3-30 μg/ml, 12 h

T1 sequence (P05067 672-713): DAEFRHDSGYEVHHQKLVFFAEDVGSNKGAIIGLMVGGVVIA
T2 sequence (P05067 672-713): as above

## COc1cc(CCC(=O)CC(=O)CCc2ccc(O)c(OC)c2)ccc1O [THC, tetrahydrocurcumin]
[1]
  pIC50: 4.02
[2]
  reduction of tau hyper-phosphorylation compared to control: ca. 40%
[3]
  ratio of IL-4 to IL-2 cytokine levels: 0.8

## COc1cc(/C=C/C(=O)CC(=O)/C=C/c2ccc(O)c(OC)c2)ccc1O [Curcumin, curcumin]
[4]
  inhibition of Aβ1-42 aggregation: effective
[1]; interaction with Extract 1 (synergistic, antagonistic or additive)
  Effect: Additive

## COc1cc(/C=C/C(O)=C/C(=O)/C=C/c2ccc(O)cc2)ccc1O [DMC, demethoxycurcumin]
[1]; extract or standard alone, Aβ1-42 aggregation, read-out: IC50 Individual (converted)
  IC50: 1700 µM
[5]
  inhibition of Aβ generation: ca. 10%
